Source: patent publication US10988478B1, “Pyrazolo[1,5a]pyrimidine derivatives as IRAK4 modulators” (Genentech, Inc., priority 2015, dated 2021)

Target: human IRAK4 (Homo sapiens (Human), UniProt Q9NWZ3)
Assay: IRAK4 kinase inhibition, Transcreener fluorescence polarization ADP assay
Format: biochemical
Settings: recombinant full-length His6-IRAK4; 125 uM ATP; 90 min; Ki computed using ATP Km 642 uM
Description: Compounds were assayed for inhibition of human IRAK4 and IRAK1 catalytic activity using recombinant enzyme produced from insect cells. Full-length IRAK4 protein, carrying an N-terminal His6-Tag, was obtained from Life Technologies (Carlsbad, Calif., USA). The IRAK1 construct was produced internally and was comprised of IRAK1 residues Arg194 to Ser712, preceded by an NH2-terminal His6 tag and the coding sequence for glutathione-S-transferase.

Sequence of human IRAK4 (Q9NWZ3 whole entry): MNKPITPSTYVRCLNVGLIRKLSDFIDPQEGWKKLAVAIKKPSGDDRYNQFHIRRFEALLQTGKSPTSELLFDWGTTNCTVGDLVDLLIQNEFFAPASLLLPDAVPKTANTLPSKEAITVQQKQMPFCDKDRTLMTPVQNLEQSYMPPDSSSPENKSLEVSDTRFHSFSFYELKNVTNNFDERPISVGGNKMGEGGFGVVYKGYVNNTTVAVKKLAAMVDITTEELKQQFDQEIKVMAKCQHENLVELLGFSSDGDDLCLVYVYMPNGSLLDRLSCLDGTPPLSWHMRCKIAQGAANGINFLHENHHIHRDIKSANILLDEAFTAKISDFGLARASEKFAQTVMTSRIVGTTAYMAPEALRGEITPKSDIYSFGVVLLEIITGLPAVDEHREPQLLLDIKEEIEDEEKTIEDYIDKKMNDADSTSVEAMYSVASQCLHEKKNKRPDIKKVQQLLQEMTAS

| Ki [nM] | SMILES |
| --- | --- |
| 20 | Cn1cc(COc2cc3c(cc2NC(=O)c2cnn4cccnc24)C[C@](C)(O)CO3)cn1 [Example 431, (S)-N-(3-hydroxy-3-methyl-7-((1-methyl-1H-pyrazol-4-yl)methoxy)chroman-6-yl)pyrazolo[1,5-a]pyrimidine-3-carboxamide] |
| 1.1 | C[C@]1(CC#N)COc2cc(N3CCOCC3)c(NC(=O)c3cnn4cccnc34)cc2C1 [Example 520, N-[(3S)-3-(cyanomethyl)-3-methyl-7-morpholino-chroman-6-yl]pyrazolo[1,5-a]pyrimidine-3-carboxamide] |
| 490 | CC(C)(O)[C@@]1(C)Cc2cc(NC(=O)c3cnn4cccnc34)c(O[C@H]3CC[C@@H](O)CC3)cc2O1 [Example 313, N-[(2R)-6-(cis-4-Hydroxycyclo-hexoxy)-2-(1-hydroxy-1-methyl-ethyl)-2-methyl-3H-benzofuran-5-yl]pyrazolo[1,5-a]pyrimidine-3-carboxamide] |
| 1.1 | CC1(C)Cc2cc(NC(=O)c3cnn4cccnc34)c(N3CCN(Cc4c[nH]cn4)CC3)cc2O1 [Example 509, N-(6-(4-((1H-imidazol-4-yl)methyl)piperazin-1-yl)-2,2-dimethyl-2,3-dihydrobenzofuran-5-yl)pyrazolo[1,5-a]pyrimidine-3-carboxamide] |
| 67 | CC1(C)Cc2cc(NC(=O)c3cnn4cccnc34)c(N3CCN(CC4CCOCC4)CC3)cc2O1 [Example 464, N-(2,2-dimethyl-6-(4-((tetrahydro-2H-pyran-4-yl)methyl)piperazin-1-yl)-2,3-dihydrobenzofuran-5-yl)pyrazolo[1,5-a]pyrimidine-3-carboxamide] |
| 17 | CC1(C)Cc2cc(NC(=O)c3cnn4cccnc34)c(N3CCCC(F)(F)CC3)cc2O1 [Example 207, N-(6-(4,4-difluoroazepan-1-yl)-2,2-dimethyl-2,3-dihydrobenzofuran-5-yl)pyrazolo[1,5-a]pyrimidine-3-carboxamide] |
| 20 | C[C@H](O)CN1CCN(c2cc3c(cc2NC(=O)c2cnn4cccnc24)CC(C)(C)O3)CC1 [Example 474, (S)-N-(6-(4-(2-hydroxypropyl)piperazin-1-yl)-2,2-dimethyl-2,3-dihydrobenzofuran-5-yl)pyrazolo[1,5-a]pyrimidine-3-carboxamide] |
| 450 | C[C@@]1(CO)Cc2cc(NC(=O)c3cnn4cccnc34)c(C(F)(F)F)cc2O1 [Example 72, N-[(2S)-2-(hydroxymethyl)-2-methyl-6-(trifluoromethyl)-3H-benzofuran-5-yl]pyrazolo[1,5-a]pyrimidine-3-carboxamide] |
| 4.5 | C[C@@]1(C2CC2)Cc2cc(NC(=O)c3cnn4cccnc34)c(N3CCC(F)(CO)CC3)cc2O1 [Example 162, (S)—N-(2-Cyclopropyl-6-(4-fluoro-4-(hydroxymethyl)piperidin-1-yl)-2-methyl-2,3-dihydrobenzofuran-5-yl)pyrazolo[1,5-a]pyrimidine-3-carboxamide] |
| 3.2 | CC1(C)Cc2cc(NC(=O)c3cnn4cccnc34)c(N3CCC(C(N)=O)CC3)cc2O1 [Example 531, N-[6-(4-carbamoyl-1-piperidyl)-2,2-dimethyl-3H-benzofuran-5-yl]pyrazolo[1,5-a]pyrimidine-3-carboxamide] |
| 2 | Cc1cnc2c(C(=O)Nc3cc4c(cc3N3CCN(CC(F)F)CC3)C(=O)N(C[C@@H](F)C(C)(C)O)C4)cnn2c1 [Example 284, N-[6-[4-(2,2-Difluoroethyl)piperazin-1-yl]-2-[(2R)-2-fluoro-3-hydroxy-3-methyl-butyl]-1-oxo-isoindolin-5-yl]-6-methyl-pyrazolo[1,5-a]pyrimidine-3-carboxamide] |
| 2.9 | CC(C)(O)[C@H]1CC[C@H](N2Cc3cc(NC(=O)c4cnn5cccnc45)c(N4CCOCC4)cc3C2=O)CC1 [Example 548, trans-N-[2-[4-(1-Hydroxy-1-methyl-ethyl)cyclohexyl]-6-morpholino-1-oxo-isoindolin-5-yl]pyrazolo[1,5-a]pyrimidine-3-carboxamide] |
| 7.2 | CC[C@]1(C)Cc2cc(NC(=O)c3cnn4cccnc34)c(N3CCOCC3)cc2O1 (single isomer, unassigned) [Example 97] |
| 26 | CC1(C)Cc2cc(NC(=O)c3cnn4cccnc34)c(C3CCN(CC(F)F)CC3)cc2O1 [Example 89, N-[6-[1-(2,2-Difluoroethyl)-4-piperidyl]-2,2-dimethyl-3H-benzofuran-5-yl]pyrazolo[1,5-a]pyrimidine-3-carboxamide] |
| 6.8 | O=C(Nc1cc2c(cc1N1CCOCC1)OC1(CCN(CCO)CC1)C2)c1cnn2cccnc12 [Example 369, N-[1′-(2-Hydroxyethyl)-6-morpholino-spiro[3H-benzofuran-2,4′-piperidine]-5-yl]pyrazolo[1,5-a]pyrimidine-3-carboxamide] |
| 19 | O=C(Nc1cc2c(cc1N1CCOCC1)S(=O)(=O)CCN2)c1cnn2cccnc12 [Example 402, N-(7-Morpholino-1,1-dioxido-3,4-dihydro-2H-benzo[b][1,4]thiazin-6-yl)pyrazolo[1,5-a]pyrimidine-3-carboxamide] |
| 19 | CN1Cc2cc(NC(=O)c3cnn4cccnc34)c(N3CCOCC3)cc2S1(=O)=O [Example 385, N-(2-methyl-6-morpholino-1,1-dioxo-3H-1,2-benzothiazol-5-yl)pyrazolo[1,5-a]pyrimidine-3-carboxamide] |
| 9.5 | CC1(C)Cc2cc(NC(=O)c3cnn4cccnc34)c(N3CCC(O)C(F)C3)cc2O1 (stereo not drawn) [Example 115, N-(6-(3-Fluoro-4-hydroxypiperidin-1-yl)-2,2-dimethyl-2,3-dihydrobenzofuran-5-yl)pyrazolo[1,5-a]pyrimidine-3-carboxamide] |
| 170 | CC1(C)Cc2cc(NC(=O)c3cnn4cccnc34)c(N3CC4CC(F)(F)C4C3)cc2O1 (stereo not drawn) [Example 199, N-(6-(6,6-difluoro-3-azabicyclo[3.2.0]heptan-3-yl)-2,2-dimethyl-2,3-dihydrobenzofuran-5-yl)pyrazolo[1,5-a]pyrimidine-3-carboxamide] |
| 5.1 | CNC(=O)CC1CCN(c2cc3c(cc2NC(=O)c2cnn4cccnc24)CC(C)(C)O3)CC1 [Example 183, N-[2,2-dimethyl-6-[4-[2-(methylamino)-2-oxo-ethyl]-1-piperidyl]-3H-benzofuran-5-yl]pyrazolo[1,5-a]pyrimidine-3-carboxamide] |
| 65 | CC1(CO)Cc2cc(NC(=O)c3cnn4cc(C(F)F)cnc34)c(N3CCOCC3)cc2O1 (stereo not drawn) [Example 75, 6-(Difluoromethyl)-N-[2-(hydroxymethyl)-2-methyl-6-morpholino-3H-benzofuran-5-yl]pyrazolo[1,5-a]pyrimidine-3-carboxamide] |
| 9.6 | CC1(O)COc2cc(N3CCC(C(C)(O)C(F)(F)F)CC3)c(NC(=O)c3cnn4cccnc34)cc2C1 (stereo not drawn) [Example 423, N-(3-hydroxy-3-methyl-7-(4-(1,1,1-trifluoro-2-hydroxypropan-2-yl)piperidin-1-yl)chroman-6-yl)pyrazolo[1,5-a]pyrimidine-3-carboxamide] |
| 1.3 | CC1(C)Cc2cc(NC(=O)c3cnn4cccnc34)c(N3CCC(F)(CN)CC3)cc2O1 [Example 389, N-[6-[4-(Aminomethyl)-4-fluoro-1-piperidyl]-2,2-dimethyl-3H-benzofuran-5-yl]pyrazolo[1,5-a]pyrimidine-3-carboxamide] |
| 5 | CC1(C)Cc2cc(NC(=O)c3cnn4cccnc34)c(N3CCOCC3)cc2O1 [Example 33, N-(2,2-dimethyl-6-morpholino-2,3-dihydrobenzofuran-5-yl)pyrazolo[1,5-a]pyrimidine-3-carboxamide] |
